Reference: US8722634B2, “Use of compounds extracted from Momordica charantia L. in the manufacture of medicaments for prevention and treatment of diabetes and obesity” (Shanghai Institute of Materia Medica, Chinese Academy of …, priority 2008, dated 2014)

Legend:
[1] = system: glucose transporter 4 (GLUT4); test: translocation of glucose transporter 4 (GLUT4) to the cell membrane in L6 myotubes; type: cell-based; details: 10 μM, 2 hours
Method: Effects of isolated compounds on the translocation of glucose transporter 4 (GLUT4) from cytosol to the cell membrane (FIG. 2)
After L6 cells were differentiated to myotube completely, they were treated for 2 hours with various test compounds, namely trihydroxycucurbita-5,23(E)-dien-19-al, 22(S),23(R),24(R),25-tetrahydroxycucurbita-5-ene, momordicoside A, momordicoside B (final concentration 10 μM, each) or 100 nM insulin (as positive control). The data were expressed as mean±standard error (X±SE) (n=3-4). The significance was shown as ***p<0.001 compared with solvent control groups.

[2] = system: adenosine monophosphate-activated protein kinase (AMPK); test: AMPK activation (pACC, pAMPK) in 3T3-L1 adipose cells; type: cell-based; details: for activation of the AMPK signaling pathway (pACC, pAMPK): 10 μM, 60 minutes
Method: Testing the activities of trihydroxycucurbita-5,23(E)-diene-19-aldehyde and 22(S), 23(R),24(R),25-tetrahydroxy cucurbita-5-ene on adenosine monophosphate-activated protein kinase (AMPK) (FIG. 3)
3T3-L1 adipose cells was incubated for 60 minutes in a medium containing 10 μM compounds, or in a medium containing 2 mM 5-amino4-imidazolecarboxamide nucleotide (AIC, positive control) or DMSO as a solvent control, followed by being treated with 100 nM insulin for 2 minutes or 25 minutes. Then the proteins pACC and pAMPK in cell lysate were determined with corresponding antibodies. The total amount of protein 14-3-3 was used as the quality control for sample loading.
(§1) According the processes in experimental examples 2 and 3, 22(S),23(R),24(R),25-tetrahydroxycucurbita-5-ene was tested at different concentrations (10^−10, 10^−7, 10^−6, 10^−5 M).

protein kinase B (Akt) [3] = test: phosphorylation of protein kinase B [Akt (S473)] in 3T3-L1 adipose cells; type: cell-based; details: 10 μM, 30 minutes
Method: (§2) B. 3T3-L1 adipose cells and L6 muscle cells were incubated for 30 minutes in a medium containing 10 μM trihydroxycucurbita-5,23(E)-dien-19-al or 22(S),23(R),24(R),25-tetrahydroxycucurbita-5-ene, or a medium containing 100 nM insulin (positive control) or DMSO as a solvent control. The phosphorylation of protein kinase B [Akt (S473)] and the total protein kinase B (14-3-3) were determined with corresponding antibodies. The significances are shown as *p<0.05 and **p<0.01 compared with the solvent control groups.

[4] = system: alloxan-induced diabetic mice; details: 400 mg/kg, effect reported was very mild; cited from earlier work
protein kinase B (Akt) [5] = test: phosphorylation of protein kinase B [Akt (S473)] in L6 muscle cells; type: cell-based; details: 10 μM, 30 minutes
Method: as §2

L6 muscle cells = test: glucose uptake in L6 muscle cells (2-[3H]-deoxy-D-glucose); type: cell-based; details: 10 μM, 2 hours, p<0.05 vs control
Method: Testing the effect of momordicoside A on the glucose uptake in L6 muscle cells (FIG. 1)
After L6 cells were differentiated to myotube completely, they were incubated in serum-free DMEM containing 0.5% BSA for 16 hours. […] After that, they were washed with 1×PBS preheated at 37° C. twice, and 0.5% BSA Krebs buffer (NaCl 140 mM, KCl 5 mM, MgSO4 2.5 mM, CaCl2 1 mM, HEPES 20 mM, pH7.4) without or with insulin (final concentration 100 nM), followed by incubation at 37° C. for 40 minutes. A 2-[1,2-3H(N)]-deoxy-D-glucose solution (final concentration 0.5 μCi/ml) was added therein and incubated for 10 minutes at 37° C. Then the reaction was terminated by washing three times with ice-cold 1×PBS and 0.15 ml of 0.1% Triton was added therein for the lysis of the cells the counting in a liquid-scintillation counter. After the CPM value was corrected with the protein amount, the glucose uptake amount of L6 cells was calculated.
The data are shown in mean±standard error (X±SE) (n=3). The significance was shown as *p<0.05 compared with control groups under corresponding conditions.

[6] = system: glucose transporter 4 (GLUT4); test: GLUT4 translocation in 3T3-L1 adipose cells; type: cell-based
Method: Dose-dependent effect of 22(S),23(R),24(R),25-tetrahydroxycucurbita-5-ene on GLUT4 translocation and the phosphorylation of AMPK in 3T3-L1 adipose cells (FIG. 4)
as §1
A. 10 μM 22(S),23(R),24(R),25-tetrahydroxycucurbita-5-ene or 100 nM insulin (positive control) was added in the differentiated 3T3-L1 adipose cells using DMSO (final concentration of DMSO: 0.2%) as a solvent with or without wortmanin (an inhibitor of monophosphoinositide 3-kinase), and the activity on GLUT4 translocation was determined as described in experimental example 2. The data were expressed in mean±standard error (X±SE). The significances were shown as *p<0.05 and **p<0.01 compared with the solvent control groups.

[7] = tested at 10^−10, 10^−7, 10^−6, 10^−5 M

Row | Molecule | translocation of glucose transporter 4 (GLUT4) to the cell membrane [1] | activation of the AMPK signaling pathway (pACC, pAMPK) [2] | phosphorylation of protein kinase B [Akt (S473)] (protein kinase B (Akt) [3]) | hypoglycemic effect [4] | phosphorylation of protein kinase B [Akt (S473)] (protein kinase B (Akt) [5]) | glucose uptake in L6 cells under the stimulus of insulin (L6 muscle cells; 100 nM insulin) | glucose uptake in L6 cells at base level (L6 muscle cells; without insulin) | concentration at which the maximal effect on phosphorylation of AMPK was reached [2, 7] | effect of wortmanin (PI3-kinase inhibitor) on the compound's activity on GLUT4 translocation ([6]; 10 μM, with or without wortmanin) | concentration at which the maximal effect on GLUT4 translocation was reached [6, 7]
1 | C[C@H](C/C=C/C(C)(C)O)[C@H]1CC[C@@]2(C)C3[C@@H](O)C=C4C(CC[C@H](O)C4(C)C)[C@]3(C=O)CC[C@]12C (stereo partly drawn) [trihydroxycucurbita-5,23(E)-dien-19-al] | capable of promoting the translocation | capable of activating the AMPK signaling pathway significantly | not able to increase the phosphorylation of protein kinase B | showed hypoglycemic effect | not able to increase the phosphorylation of protein kinase B | – | – | – | – | –
2 | momordicoside A | – | – | – | – | – | increased significantly | increased significantly | – | – | –
3 | C[C@H]([C@H](O)[C@@H](O)[C@@H](O)C(C)(C)O)[C@H]1CC[C@@]2(C)C3CC=C4C(CC[C@H](O)C4(C)C)[C@]3(C)CC[C@]12C (stereo partly drawn) [22(S),23(R),24(R),25-tetrahydroxycucurbita-5-ene] | capable of promoting the translocation | capable of activating the AMPK signaling pathway significantly | not able to increase the phosphorylation of protein kinase B | – | not able to increase the phosphorylation of protein kinase B | – | – | 10^−6 M | did not affect the activity | 10^−6 M
4 | CC(CC=CC(C)(C)O)C1CCC2(C)C3C=CC45OCC3(CCC12C)C4CCC(O)C5(C)C (stereo not drawn) [5β, 19-epoxy-3β,25-dihydroxycucurbita-6,23(E)-diene] | – | – | – | showed hypoglycemic effect | – | – | – | – | – | –
